Where two headings read alike, the source gives them in different places.
Columns and labels:
[1] = test system: IP1 production in the mouse hippocampus; assay: In vivo IP1 assay, mouse hippocampus; settings: p.o.; 3, 10, 30 mg/kg tested
Protocol: Eight‐week‐old Long‐Evans rats, 8‐ to 9‐week‐old C57BL/6J mice, and 22‐ or 29‐week‐old M1R KO mice and their WT littermates were used in this study. On the day of the experiment, animals were placed in individual cages and acclimated for more than 1 hour. A test compound or vehicle was administered 2 hours before the animals were sacrificed. […] LiCl (10 mmol/kg, s.c.) was injected 1 hour before sacrifice. In the repeated administration study, a test compound was administered to mice once daily for 13 days; on day 14, animals were treated with a test compound and LiCl (10 mmol/kg, s.c.) and then sacrificed. Animals were killed by decapitation, and blood was collected into tubes containing ethylenediaminetetraacetic acid for pharmacokinetic analysis; brains were quickly dissected, frozen on dry ice, and stored at −80°C until analysis. […] IP1 and protein concentrations in the diluted supernatant were measured using IP‐One HTRF assay kit (Cisbio Bioassays) and BCA Protein Assay Kit (Thermo Fisher Scientific Inc), respectively, according to the manufacturers’ instructions. IP1 production was expressed as the ratio of IP1 to protein concentrations.

[2] = Concentrations in plasma and brain of wild-type and M1R KO mice; type: in vivo; settings: mouse, po, 20 mg/kg, 20 mg/kg p.o.; for concentration at 2 h: mean ± SD; for Kp at 2 h: brain/plasma
Protocol: (§1) Eight‐week‐old Long‐Evans rats, 8‐ to 9‐week‐old C57BL/6J mice, and 22‐ or 29‐week‐old M1R KO mice and their WT littermates were used in this study. On the day of the experiment, animals were placed in individual cages and acclimated for more than 1 hour. A test compound or vehicle was administered 2 hours before the animals were sacrificed. […] LiCl (10 mmol/kg, s.c.) was injected 1 hour before sacrifice. In the repeated administration study, a test compound was administered to mice once daily for 13 days; on day 14, animals were treated with a test compound and LiCl (10 mmol/kg, s.c.) and then sacrificed. Animals were killed by decapitation, and blood was collected into tubes containing ethylenediaminetetraacetic acid for pharmacokinetic analysis; brains were quickly dissected, frozen on dry ice, and stored at −80°C until analysis. Brain tissues were homogenized in 19 (for rat tissues) or 39 (for mouse tissue) volumes of homogenization buffer (10 mmol/L HEPES pH 7.4, 50 mmol/L LiCl, 150 mmol/L NaCl, and 1% Triton X‐100), and the homogenate was incubated on a rotator for 1 hour, followed by centrifugation. The supernatant was diluted with 39 (for rat tissues) or 19 (for mouse tissues) volumes of dilution buffer (10 mmol/L HEPES pH 7.4, 50 mmol/L LiCl, and 150 mmol/L NaCl). IP1 and protein concentrations in the diluted supernatant were measured using IP‐One HTRF assay kit (Cisbio Bioassays) and BCA Protein Assay Kit (Thermo Fisher Scientific Inc), respectively, according to the manufacturers’ instructions. IP1 production was expressed as the ratio of IP1 to protein concentrations.

[3] = test system: IP1 production in the hippocampus, prefrontal cortex, striatum, and brainstem; assay: In vivo IP1 assay, wild‐type and M1R KO mice; design: species or system mouse; settings: 20 mg/kg p.o.
Protocol: as §1

[4] = Concentrations in rat plasma and brain (IP1 study); type: in vivo; settings: Long-Evans, po, mean ± SD; for Kp at 2 h: brain/plasma, read-out: Kp (brain‐to‐plasma concentration ratio)
Protocol: as §1

SD rats = settings: rat, in vivo; for Convulsion / Fasciculation / Lacrimation / Loose or mucous stool or diarrhea / Miosis / Salivation: SD
Protocol: Seven‐ or 8‐week‐old SD rats were individually placed into observation cages. After an acclimation period of at least 1 hour, a test compound was administered to the rats. […] Cholinergic side effects, including diarrhea, lacrimation, salivation, miosis, and fasciculation, were assessed blindly, as described previously,27 and convulsion was scored using a modified Racine scale,37 as follows: stage 0, normal; stage 1, immobility; stage 2, forelimb and/or tail extension and rigid posture; stage 3, repetitive movements, head nodding, and gnawing; stage 4, rearing and falling; stage 5, continuous rearing and falling; stage 6, severe tonic‐clonic seizure with loss of postural control; and stage 7, death in the first 2 hours.

[5] = Concentrations in mouse plasma and brain after single and repeated treatment; type: in vivo; settings: C57BL/6J, oral, mean ± SD
Protocol: as §1

human M2R–M5R = assay: Ca2+ mobilization assay, PAM activity (with EC20 ACh), CHO‐K1 cells; type: cell-based; settings: inflection point, EC20 concentration of ACh, read-out: PAM activity IP
Protocol: Chinese hamster ovary (CHO)‐K1 cells expressing M1R–M5R were plated on a 96‐well black, clear bottom plate at 30 000 cells/well and incubated at 37°C in an atmosphere of 5% CO2 for 1 day. On the day of the assay, cells were incubated with calcium dye buffer (Hanks’ Balanced Salt Solution (HBSS) containing 20 mmol/L HEPES, 0.1% fatty acid‐free bovine serum albumin (BSA), 0.08% pluronic F127 (Dojindo Laboratories), 2.5 μg/mL Fluo‐4 (Dojindo Laboratories), and 1.25 mmol/L probenecid (Dojindo Laboratories)) for 30 minutes at 37°C in an atmosphere of 5% CO2 and then incubated for 30 minutes at room temperature. To measure Ca^2+ mobilization using CellLux (PerkinElmer), cells were stimulated with T‐495 or MK‐7622 (0.01‐1000 nmol/L for PAM activity; 0.3‐10 000 nmol/L for agonist activity) in assay buffer (HBSS containing 20 mmol/L HEPES and 0.1% fatty acid‐free BSA) with or without an EC20 concentration of ACh. The inflection point (IP) and EC50 values were calculated using the following equation by GraphPad Prism 5 software (GraphPad Software Inc): Y=Bottom+(Top-Bottom)/1+10^(Log IPorEC50-X×HillSlope))
where X and Y are the log concentration of a compound and the percentage of Ca^2+ response, respectively, and Top and Bottom are the upper and lower plateaus, respectively.

## Cc1ccc(Cc2cc3c(=O)n([C@H]4CCCC[C@@H]4O)cnc3c3ccccc23)cn1 [MK‐7622, 3‐((1S,2S)‐2‐hydroxycyclohexyl)‐6‐((6‐methylpyridin‐3‐yl)methyl)benzo[h]quinazolin‐4(3H)‐one, reference compound]
[1]
  minimum effective dose for increase of IP1 production in the mouse hippocampus: 10 mg/kg
[2]; brain (hippocampus), M1R KO mice hippocampus, read-out: Brain concentration
  concentration at 2 h: 456 ± 85.8 ng/g
[2]; brain (hippocampus), wild-type mice hippocampus, read-out: Brain concentration
  concentration at 2 h: 582 ± 133 ng/g
[2]; M1R KO mice
  Kp at 2 h: 0.21
[2]; wild-type mice
  Kp at 2 h: 0.26
[2]; plasma, M1R KO mice, n = 10, read-out: Plasma concentration
  concentration at 2 h: 2190 ± 312 ng/mL
[2]; plasma, wild-type mice, n = 10, read-out: Plasma concentration
  concentration at 2 h: 2240 ± 376 ng/mL
[3]; M1R KO mice (and wild‐type)
  IP1 production in the brainstem: slight reduction
[3]; M1R KO mice
  IP1 production in hippocampus, prefrontal cortex, and striatum: did not cause a significant increase
[3]; wild‐type mice
  IP1 production in the brainstem: slightly reduced
  IP1 production in the forebrain: increased
[4]; brain (hippocampus), rat hippocampus, 1 mg/kg p.o., read-out: Brain concentration
  concentration at 2 h: 14.5 ± 6.3 ng/g
[4]; brain (hippocampus), rat hippocampus, 3 mg/kg p.o., read-out: Brain concentration
  concentration at 2 h: 39.3 ± 5.6 ng/g
[4]; brain (hippocampus), rat hippocampus, 10 mg/kg p.o., read-out: Brain concentration
  concentration at 2 h: 220 ± 72.2 ng/g
[4]; rat, 1 mg/kg p.o.
  Kp at 2 h: 0.14 ± 0.04
[4]; rat, 3 mg/kg p.o.
  Kp at 2 h: 0.19 ± 0.04
[4]; rat, 10 mg/kg p.o.
  Kp at 2 h: 0.23 ± 0.02
[4]; plasma, rat, 1 mg/kg p.o., n = 6, read-out: Plasma concentration
  concentration at 2 h: 99.2 ng/mL
[4]; plasma, rat, 3 mg/kg p.o., n = 6, read-out: Plasma concentration
  concentration at 2 h: 218 ± 42.9 ng/mL
[4]; plasma, rat, 10 mg/kg p.o., n = 6, read-out: Plasma concentration
  concentration at 2 h: 944 ± 246 ng/mL
SD rats; po, 3 mg/kg
  Convulsion: 0/6
  Fasciculation: 0/6
  Lacrimation: 0/6
  Loose or mucous stool or diarrhea: 2/6
  Miosis: 0/6
  Salivation: 0/6
  diarrhea score: tended to increase
SD rats; po, 10 mg/kg
  Convulsion: 0/6
  Fasciculation: 0/6
  Lacrimation: 0/6
  Loose or mucous stool or diarrhea: 3/6
  Miosis: 0/6
  Salivation: 0/6
SD rats; po, 30 mg/kg
  Convulsion: 0/6
  Fasciculation: 0/6
  Lacrimation: 0/6
  Loose or mucous stool or diarrhea: 6/6
  Miosis: 0/6
  Salivation: 0/6
SD rats
  dose difference between memory improvement and induction of cholinergic side effects, including diarrhea: onefold
[5]; brain (hippocampus), 10 mg/kg, mouse hippocampus, pretreated with the compound 10 mg/kg p.o. for 13 days, 10 mg/kg p.o., read-out: Brain concentration
  concentration at 2 h: 126 ± 28.7 ng/g
[5]; brain (hippocampus), 10 mg/kg, mouse hippocampus, vehicle-pretreated, 10 mg/kg p.o., read-out: Brain concentration
  concentration at 2 h: 137 ± 23.1 ng/g
[5]; brain (hippocampus), 30 mg/kg, mouse hippocampus, pretreated with the compound 10 mg/kg p.o. for 13 days, 30 mg/kg p.o., read-out: Brain concentration
  concentration at 2 h: 813 ± 262 ng/g
[5]; brain (hippocampus), 30 mg/kg, mouse hippocampus, vehicle-pretreated, 30 mg/kg p.o., read-out: Brain concentration
  concentration at 2 h: 787 ± 284 ng/g
[5]; plasma, 10 mg/kg, pretreated with the compound 10 mg/kg p.o. for 13 days, 10 mg/kg p.o., read-out: Plasma concentration
  concentration at 2 h: 490 ± 86.4 ng/mL
[5]; plasma, 10 mg/kg, vehicle-pretreated, 10 mg/kg p.o., n = 10, read-out: Plasma concentration
  concentration at 2 h: 624 ± 61.4 ng/mL
[5]; plasma, 30 mg/kg, pretreated with the compound 10 mg/kg p.o. for 13 days, 30 mg/kg p.o., read-out: Plasma concentration
  concentration at 2 h: 2430 ± 550 ng/mL
[5]; plasma, 30 mg/kg, vehicle-pretreated, 30 mg/kg p.o., n = 10, read-out: Plasma concentration
  concentration at 2 h: 2340 ± 518 ng/mL
Human M2R–M5R
  EC50: > 1 µM

Reference: publication PMC6986443, “T‐495, a novel low cooperative M1 receptor positive allosteric modulator, improves memory deficits associated with cholinergic dysfunction and is characterized by low gastrointestinal side effect risk” (Pharmacology Research & Perspectives, 2020)
